Key:
Salmonella = details: cited from earlier work
[1] = test system: Salmonella typhimurium strains, TA98 and TA100; test: Prival modification of the Ames test, with and without hamster liver S9; assay type: cell-based; details: presence and absence of metabolic activation (hamster liver S9)
Source text: (§1) The most widely accepted mutagenicity screening test procedure for amines is the Salmonella mammalian microsome mutagenicity assay developed by Ames et al. (Mutat. Res., 31 (1975) 347), hereinafter referred to as the Ames test. Subsequently, a modification of the Ames test was introduced by Prival et al. (Mutat. Res., 97 (2) (1982) 103) specifically for evaluating the mutagenicity of azo compounds, hereinafter referred to as the Prival modification. For a general discussion of mutagenicity as it pertains to colored materials, see, for instance, Freeman et al., Genotoxicity of Azo Dyes: Bases and Implications, Physico-Chemical Principles of Color Chemistry, Advances in Color Chemistry Series, Vol. 4, ed. by A. T. Peters and H. S. Freeman (Blackie Academic Press: Glasgow, 1996) 254-291; Freeman et al., Dyes Pigm. 8 (6) (1987) 431-47; and Freeman et al., CHEMTECH, July (1991), 438-445.
(§2) Mutagenicity testing of the pure derivatives of benzidine was performed using the standard Ames test, as described by Ames et al. (Mutat. Res., 31 (1975) 347). Mutagenicity testing of the various pigments was performed using the standard Ames test, and also using the Prival modification, as described by Prival et al. (Mutat. Res., 97 (2) (1982) 103).
(§3) More particularly, two Salmonella typhimurium strains, TA98 and TA100, were employed for mutagenicity testing. All benzidine derivatives and the pigments made therefrom were evaluated in the presence and absence of metabolic activation. In the Ames test, metabolic activation was achieved using rat liver S9, whereas hamster liver S9 was employed in the Prival modification. A mutagenic response was recorded for a test compound if the number of revertant colonies counted was more than twice the number of spontaneous revertant colonies formed in the absence of the test compound. A nonmutagenic response (Ames negative or Prival negative) was recorded when the number of revertant colonies counted was less than twice the number of spontaneous revertant colonies.

[2] = test system: Salmonella typhimurium strains, TA98 and TA100; test: Ames test (Salmonella mammalian microsome mutagenicity assay), with and without rat liver S9; assay type: cell-based; details: presence and absence of metabolic activation (rat liver S9)
Source text: as §1, §2, §3

[3] = in N,N-dimethylformamide (DMF); cited from earlier work

| Structure (SMILES) | mutagenicity in the Ames test (prior art) (Salmonella) | mutagenicity in the Prival modification [1] | mutagenicity in the Ames test [2] | λmax [3] [nm] |
| --- | --- | --- | --- | --- |
| Nc1ccc(-c2ccc(N)c(Cl)c2)cc1Cl [3,3'-dichlorobenzidine] | mutagenic | – | – | – |
| CCCOc1cc(-c2cc(OCCC)c(NN=C(C(C)=O)C(=O)Nc3ccccc3OC)cc2Cl)c(Cl)cc1NN=C(C(C)=O)C(=O)Nc1ccccc1OC [Pigment 107] | – | negative (the number of revertant colonies counted was less than twice the number of spontaneous revertant colonies) | negative (the number of revertant colonies counted was less than twice the number of spontaneous revertant colonies) | – |
| COc1cc(-c2ccc(NN=C(C(C)=O)C(=O)Nc3ccccc3)c(OC)c2)ccc1NN=C(C(C)=O)C(=O)Nc1ccccc1 [compound 1] | – | – | – | 445 |
| CCCOc1cc(-c2cc(OCCC)c(NN=C(C(C)=O)C(=O)Nc3ccc4[nH]c(=O)[nH]c4c3)cc2C)c(C)cc1NN=C(C(C)=O)C(=O)Nc1ccc2[nH]c(=O)[nH]c2c1 [Pigment 113] | – | negative (the number of revertant colonies counted was less than twice the number of spontaneous revertant colonies) | negative (the number of revertant colonies counted was less than twice the number of spontaneous revertant colonies) | – |
| Cc1cc(-c2cc(C)c(N)c(C)c2)cc(C)c1N [3,5,3',5'-tetramethylbenzidine] | nonmutagenic | – | – | – |
| Cc1cc(-c2ccc(N)c(C)c2)ccc1N [3,3'-dimethylbenzidine] | mutagenic | – | – | – |
| CCCOc1cc(-c2cc(OCCC)c(NN=C(C(C)=O)C(=O)Nc3ccccc3OC)cc2OC)c(OC)cc1NN=C(C(C)=O)C(=O)Nc1ccccc1OC [Pigment 98] | – | negative (the number of revertant colonies counted was less than twice the number of spontaneous revertant colonies) | negative (the number of revertant colonies counted was less than twice the number of spontaneous revertant colonies) | – |
| CCCOc1cc(-c2cc(OCCC)c(N)cc2C)c(C)cc1N [compound 12, 2,2'-dimethyl-5,5'-dipropoxybenzidine] | – | – | Ames negative (the number of revertant colonies counted was less than twice the number of spontaneous revertant colonies) | – |
| CCCOc1cc(-c2cc(OCCC)c(NN=C(C(C)=O)C(=O)Nc3ccccc3)cc2C)c(C)cc1NN=C(C(C)=O)C(=O)Nc1ccccc1 [Pigment 95] | – | negative (the number of revertant colonies counted was less than twice the number of spontaneous revertant colonies) | negative (the number of revertant colonies counted was less than twice the number of spontaneous revertant colonies) | – |
| COc1ccccc1NN=C(C(C)=O)C(=O)Nc1ccccc1 [compound 2] | – | – | – | 392 |
| CCCOc1cc(-c2cc(OCCC)c(N)cc2OC)c(OC)cc1N [compound 26, 2,2'-dimethoxy-5,5'-dipropoxybenzidine] | – | – | Ames negative (the number of revertant colonies counted was less than twice the number of spontaneous revertant colonies) | – |
| CCCOc1cc(-c2cc(OCCC)c(N=CC3C(=O)NC(=S)NC3=O)cc2C)c(C)cc1N=CC1C(=O)NC(=S)NC1=O [Pigment 93] | – | negative (the number of revertant colonies counted was less than twice the number of spontaneous revertant colonies) | negative (the number of revertant colonies counted was less than twice the number of spontaneous revertant colonies) | – |
| COc1cc(-c2ccc(N)c(OC)c2)ccc1N [3,3'-dimethoxybenzidine] | mutagenic | – | – | – |
| CCCOc1cc(-c2cc(OCCC)c(NN=C3C(=O)N(c4ccccc4)N=C3C)cc2C)c(C)cc1NN=C1C(=O)N(c2ccccc2)N=C1C [Pigment 108] | – | negative (the number of revertant colonies counted was less than twice the number of spontaneous revertant colonies) | negative (the number of revertant colonies counted was less than twice the number of spontaneous revertant colonies) | – |
